Experiment [1] deals with T1, human EP4 receptor (Homo sapiens, UniProt P35408).
T1 construct: expressed in transfected cells; membrane fraction used
The experiment can be described thus: cAMP assay (AlphaScreen) on human EP4 membrane of transfected cells, antagonism of PGE2. The experiment is classed as biochemical. Conditions: HEK293 hEP4 cell membrane stimulated with PGE2 3 nM; read-out: functional IC50. From the text:
(§1) Stable Expression of Human EP4 Receptors in the Human Embryonic Kidney (HEK293) Cell Line
(§2) The cDNA clone of human EP4 receptor (NM_000958.2) was obtained from Invitrogen™: Ultimate™ ORF Clone Collection—Clone ID IOH46525. The coding sequence was subcloned in expression vector pcDNA™6.2/V5-DEST by Gateway technology (Invitrogen™).
(§3) Human embryonic kidney cells (HEK-293) were stably transfected with expression vector for human EP4 receptor in according to the method described in FuGENE®6 Transfection Reagent's manual (Roche Applied Science®).
(§4) Preparation of Membrane Fraction:
(§5) The EP4 transfected cells were grown in Dulbecco's modified Eagle's medium containing 10% fetal bovine serum and 10 μg/ml Blasticidin S HCl (selection medium) at 37° C. in a humidified atmosphere of 5% CO2 in air.
(§6) For the membrane preparation, cells in flask were harvested by hypotonical/mechanical lysis with chilled (4° C.) TE buffer (5 mM TRIS, 5 mM etylenediamine tetra-acetic acid (EDTA), pH 7.4).
(§7) Cells were detached and lysed with 10 ml of hypotonic lysis buffer and by scraping. The cell lysate was vortexed for 30 sec and centrifuged at 40000×g at 4° C. for 22 min.
b) cAMP Assay on Human EP4 Membrane of Transfected Cells.
The assay is based on the competition between endogenous cAMP and exogenously added biotinylated cAMP. The capture of cAMP is achieved by using a specific antibody conjugated to […] beads.
Cell membranes prepared as described above, were resuspended in 1 ml stimulation buffer (HBSS 1×+BSA 0.1%+IBMX 0.5 mM+HEPES 5 mM+MgCl2 10 mM+GTP 1 nM+GDP 10 μM+ATP 100 μM−pH 7.4). Cell membranes were dispensed into white 384-well microplates at final concentration of 1 μg/well and used for the determination of cAMP with the alphascreen cAMP functional assay (EnVision—PerkinElmer). Cell membrane/anti-cAMP Acceptor beads mix (5 μl) and a mixture of analysed compounds (dissolved in 100% DMSO to a final maximal concentration of 0.01% DMSO)/PGE2 (5 μl) were incubated at room temperature (22-23° C.) for 30 min in the dark. The Biotinylated-cAMP and donor beads (15 μl) were dispensed into each well to start the competition reaction. After 1 h incubation RT (22-23° C.) in the dark the plate was read using EnVision platform to determine the cAMP level (excitation: 680 nm; emission: 520,620 nm).
cAMP standard curve (concentration range from 1×10-6 to 1×10-11 M in. log intervals) with a negative control (no cAMP) a positive control:forskolin 10 μM
Antagonism studies were performed stimulating HEK293 cell membrane with PGE2 3 nM. The AlphaScreen signal is plotted as a function of log concentration of cAMP and functional IC50 is determined. IC50 value is calculated by linear regression.
Some compounds were tested according to method of example 83b.

Experiment [2] concerns the target T1, human EP4 receptor. The experiment can be described thus: [3H]-Prostaglandin E2 membrane binding assay (human EP4/HEK293 transfectant membranes). The settings on record: [3H]-PGE2 1 nM, hEP4/HEK293 membranes; Ki by Cheng-Prusoff; read-out: Binding pKi (converted).
Text: as §1, §2, §3, §4, §5, §6, §7
a) Membrane Binding Assay[3H]-Prostaglandin E2
The membrane pellet was resuspended in the same buffer (5 mM TRIS, 5 mM ethylenediamine tetra-acetic acid (EDTA), pH 7.4), and protein concentration was determined by Bradford method (Bio-Bad® assay).
This membrane preparation was stored at −80° C. freezer until use for binding assay.
([^3H]-PGE2) membranes binding assays toward hEP4 receptors (human EP4/HEK293 transfectant, see above) and hEP2 receptors (human EP2/HEK293 transfectant, purchased from PerkinElmer Inc) were performed in 10 mM MES-KOH buffer pH6, containing 10 mM MgCl2 and 1 mM CaCl2 for EP4 binding assay or 50 mM Tris-Cl, BSA 0.5% for EP2 binding assay (according to supplier indication).
Ten microgram of protein from membrane fractions were incubated in a total volume of 0.1 ml (EP4) or 0.2 ml (EP2) with 1 nM (EP4) or 3 nM (EP2) [^3H]-PGE2 (PerkinElmer Inc, 171 Ci/mmol). In both assays to determine the total binding or non specific binding, 1% DMSO or 1 μM prostaglandin E2 (EP4) or 100 μM (EP2) were added to reaction mixtures, respectively. Incubation was conducted in a polypropylene 96 multiwell for 90 min (EP4) or 60 min (EP2) at room temperature prior to separation of the bound and free radioligand by vacuum manifold rapid filtration on glass fiber filters (Unifilter GFB96, PerkinElmer Inc) pre-soaked in 0.3% polyethyleneimine. Filters were washed with ice cold buffer pH 7.4 (50 mM HEPES, NaCl 500 mM, BSA 0.1% for EP4 binding assay or 50 mM Tris-Cl for EP2 binding assays) and the residual [^3H]-PGE2 binding determined by solid scintillation counter (TopCount, PerkinElmer Inc).
The affinity (Ki) of each compound was calculated according to the Cheng-Prousoff equation: Ki=IC50/(1+([C]/Kd)). Results were expressed as pKi (−log 10 Ki (M)
Compounds of example 1 to 82 were tested according to method of example 83a in a final concentration range from 1 nM to 1 μM.

T1 sequence (P35408 whole entry): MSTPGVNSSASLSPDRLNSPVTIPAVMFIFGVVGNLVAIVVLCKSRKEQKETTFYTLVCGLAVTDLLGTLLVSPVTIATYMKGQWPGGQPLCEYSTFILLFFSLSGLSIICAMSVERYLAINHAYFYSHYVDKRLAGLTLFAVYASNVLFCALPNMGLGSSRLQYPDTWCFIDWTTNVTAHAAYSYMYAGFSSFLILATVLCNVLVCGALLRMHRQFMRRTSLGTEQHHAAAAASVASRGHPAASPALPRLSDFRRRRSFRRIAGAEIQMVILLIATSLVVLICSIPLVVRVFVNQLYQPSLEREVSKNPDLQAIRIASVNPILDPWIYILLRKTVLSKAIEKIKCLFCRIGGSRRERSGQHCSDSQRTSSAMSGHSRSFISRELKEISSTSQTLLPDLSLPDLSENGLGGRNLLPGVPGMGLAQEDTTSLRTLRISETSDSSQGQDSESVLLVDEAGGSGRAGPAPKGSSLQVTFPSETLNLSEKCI

In the case of `O=C(O)c1ccc(C2(NC(=O)c3cc(Cl)cnc3N3CC(Oc4ccc(F)cc4)C3)CC2)cc1` [E 15, 4-(1-(5-chloro-2-(3-(4-fluorophenoxy)azetidin-1-yl)nicotinamido)cyclopropyl)benzoic acid], the IC50 at human EP4 receptor [1] was found to be 0.07 µM. Also, the Ki on human EP4 receptor [2] was 0.0126 µM.

With `O=C(O)c1ccc(C2(NC(=O)c3cc(Cl)cnc3N3CCCC3c3ccccc3)CC2)cc1` (single isomer, unassigned) [E 1, 4-(1-(5-chloro-2-(2-phenylpyrrolidin-1-yl)nicotinamido)cyclopropyl)benzoic acid], the IC50 on human EP4 receptor [1] was 0.235 µM. Moreover, the Ki at human EP4 receptor [2] was 0.398 µM.

As for `O=C(O)c1ccc(C2(NC(=O)c3cc(F)cnc3N3CC(Oc4cccc(OC(F)(F)F)c4)C3)CC2)cc1` [E 55, 4-(1-(5-fluoro-2-(3-(3-(trifluoromethoxy)phenoxy)azetidin-1-yl)nicotinamido)cyclopropyl)benzoic acid], the IC50 on human EP4 receptor [1] is 0.126 µM. In addition, the Ki on human EP4 receptor [2] is 0.0316 µM.

As to `Cc1cc(C(F)(F)F)ccc1NC1CN(c2ncc(Cl)cc2C(=O)NC2(c3ccc(C(=O)O)cc3)CC2)C1` [E 36, 4-(1-(5-chloro-2-(3-((2-methyl-4-(trifluoromethyl)phenyl)amino)azetidin-1-yl)nicotinamido)cyclopropyl)benzoic acid], on human EP4 receptor [1], the IC50 is 0.03 µM. On human EP4 receptor [2], the Ki was 0.00398 µM.

In the case of `O=C(O)c1ccc(C2(NC(=O)c3cc(Cl)cnc3N3CC(Oc4cccc(OC(F)(F)F)c4)C3)CC2)cc1` [E 18, 4-(1-(5-chloro-2-(3-(3-(trifluoromethoxy)phenoxy)azetidin-1-yl)nicotinamido)cyclopropyl)benzoic acid], the IC50 at human EP4 receptor [1] is 0.022 µM. Moreover, the Ki at human EP4 receptor [2] is 0.0126 µM.

Take `O=C(O)c1ccc(C2(NC(=O)c3cc(Cl)cnc3N3CC(Nc4cccc(C(F)(F)F)c4)C3)CC2)cc1` [E 31, 4-(1-(5-chloro-2-(3-((3-(trifluoromethyl)phenyl)amino)azetidin-1-yl)nicotinamido)cyclopropyl)benzoic acid]: the IC50 at human EP4 receptor [1] stood at 0.047 µM. For the same molecule, the Ki at human EP4 receptor [2] is 0.00794 µM.

As to `O=C(O)c1ccc(C2(NC(=O)c3cc(Cl)cnc3N3CC(Oc4ccc(F)c(F)c4)C3)CC2)cc1` [E 20, 4-(1-(5-chloro-2-(3-(3,4-difluorophenoxy)azetidin-1-yl)nicotinamido)cyclopropyl)benzoic acid], at human EP4 receptor [1], the IC50 came out at 0.07 µM. Further, the Ki on human EP4 receptor [2] was 0.01 µM.

As for `O=C(O)c1ccc(C2(NC(=O)c3cc(C(F)(F)F)cnc3N3CC(Oc4ccc(Cl)cc4)C3)CC2)cc1` [E 40, 4-(1-(2-(3-(4-chlorophenoxy)azetidin-1-yl)-5-(trifluoromethyl)nicotinamido)cyclopropyl)benzoic acid], the IC50 at human EP4 receptor [1] was found to be 0.01 µM. Moreover, the Ki on human EP4 receptor [2] was 0.00501 µM.

Turning to `O=C(O)c1ccc(C2(NC(=O)c3cc(Cl)cnc3N3CC(Oc4ccc(F)cc4F)C3)CC2)cc1` [E 19, 4-(1-(5-chloro-2-(3-(2,4-difluorophenoxy)azetidin-1-yl)nicotinamido)cyclopropyl)benzoic acid], on human EP4 receptor [1], the IC50 was 0.087 µM. In addition, the Ki on human EP4 receptor [2] was 0.0501 µM.

As for `O=C(O)c1ccc(C2(NC(=O)c3cc(Cl)cnc3N3CCC(Oc4ccccc4)C3)CC2)cc1` (single isomer, unassigned) [E 62], the IC50 on human EP4 receptor [1] turned out to be 0.046 µM. The Ki at human EP4 receptor [2] was 0.0251 µM.

Turning to `O=C(O)c1ccc(C2(NC(=O)c3cc(Cl)cnc3N3CCC(Oc4cccc(F)c4)C3)CC2)cc1` (single isomer, unassigned) [E 69, 4-(1-(5-chloro-2-(3-(3-fluorophenoxy)pyrrolidin-1-yl)nicotinamido)cyclopropyl)benzoic acid], at human EP4 receptor [1], the IC50 was 0.308 µM. For the same molecule, the Ki on human EP4 receptor [2] was 0.0501 µM.

Consider `O=C(O)c1ccc(C2(NC(=O)c3cc(Cl)cnc3N3CC[C@H](Oc4cccc(F)c4)C3)CC2)cc1` [E 80, (S)-4-(1-(5-chloro-2-(3-(3-fluorophenoxy)pyrrolidin-1-yl)nicotinamido)cyclopropyl)benzoic acid], for which, on human EP4 receptor [1], the IC50 was 0.099 µM. The Ki at human EP4 receptor [2] was 0.0398 µM.

As to `O=C(O)c1ccc(C2(NC(=O)c3cc(C(F)(F)F)cnc3N3CC(Oc4cccc(C(F)(F)F)n4)C3)CC2)cc1` [E 47, 4-(1-(5-(trifluoromethyl)-2-(3-((6-(trifluoromethyl)pyridin-2-yl)oxy)azetidin-1-yl)nicotinamido)cyclopropyl)benzoic acid], the IC50 on human EP4 receptor [1] was determined as 0.228 µM. Further, the Ki at human EP4 receptor [2] is 0.0631 µM.

Consider `O=C(O)c1ccc(C2(NC(=O)c3cc(Cl)cnc3N3CCC[C@@H]3COc3cccc(F)c3)CC2)cc1` [E 77, 4 (R)-4-(1-(5-chloro-2-(2-((3-fluorophenoxy)methyl)pyrrolidin-1-yl)nicotinamido)cyclopropyl)benzoic acid], for which the IC50 at human EP4 receptor [1] amounted to 0.09 µM. For the same molecule, the Ki at human EP4 receptor [2] was 0.01 µM.

For `O=C(O)c1ccc(CNC(=O)c2cc(Cl)cnc2N2CC(Oc3cccc(F)c3)C2)cc1` [E 22, 4-((5-chloro-2-(3-(3-fluorophenoxy)azetidin-1-yl)nicotinamido)methyl)benzoic acid], at human EP4 receptor [1], the IC50 came to 0.119 µM. At human EP4 receptor [2], the Ki was 0.0316 µM.

In the case of `Cc1cc(F)ccc1N(C)C1CN(c2ncc(Cl)cc2C(=O)NC2(c3ccc(C(=O)O)cc3)CC2)C1` [E 37, 4-(1-(5-chloro-2-(3-((4-fluoro-2-methylphenyl)(methyl)amino)azetidin-1-yl)nicotinamido)cyclopropyl)benzoic acid], the IC50 at human EP4 receptor [1] came to 0.031 µM. Moreover, the Ki on human EP4 receptor [2] was 0.0126 µM.

As for `O=C(O)c1ccc(C2(NC(=O)c3cc(Cl)cnc3N3CC(O)(c4ccc(F)cc4)C3)CC2)cc1` [E 28, 4-(1-(5-chloro-2-(3-(4-fluorophenyl)-3-hydroxyazetidin-1-yl)nicotinamido)cyclopropyl)benzoic acid], the IC50 on human EP4 receptor [1] came to 0.197 µM. Besides, the Ki on human EP4 receptor [2] is 0.0794 µM.

`O=C(O)c1ccc(C2(NC(=O)c3cc(C(F)(F)F)cnc3N3CC(Oc4ccc(F)cc4F)C3)CC2)cc1` [E 44, 4-(1-(2-(3-(2,4-difluorophenoxy)azetidin-1-yl)-5-(trifluoromethyl)nicotinamido)cyclopropyl)benzoic acid]: at human EP4 receptor [1], the IC50 was determined as 0.0175 µM. In addition, on human EP4 receptor [2], the Ki is 0.01 µM.

Turning to `O=C(O)c1ccc(C2(NC(=O)c3cc(Cl)cnc3N3CCC(Oc4ccc(F)cc4)C3)CC2)cc1` (single isomer, unassigned) [E 66, 4-(1-(5-chloro-2-(3-(4-fluorophenoxy)pyrrolidin-1-yl)nicotinamido)cyclopropyl)benzoic acid], at human EP4 receptor [1], the IC50 was 0.043 µM. Moreover, the Ki at human EP4 receptor [2] was 0.0398 µM.

Source of the values: US8828987B2, “Pyridine amide derivatives as EP4 receptor antagonists” (Rottapharm Biotech S.R.L., priority 2010, dated 2014).
